# From PMC7525662, “Preclinical dosimetry models and the prediction of clinical doses of novel positron emission tomography radiotracers” (Scientific Reports, 2020)
# Marks after values point to notes of the source that are not given here.
# Legend:
# Design in all cases: species or system Sprague–Dawley rats
# [1] = Residence times in rat source organs from whole-body PET, FBP reconstruction; settings: in vivo, iv
# Method: (§1) Immediately after radiotracer administration, a 240 min emission scan using 4 beds (50% overlap) was obtained using 3-dimensional 1:5 mode and re-binned as follows: 7 × 1 min, 2 × 5 min and 4 × 10 min. Throughout the PET/CT scanning session, animal temperature and respiration rate were monitored and controlled. PET studies were reconstructed using filtered-back projection (FBP) and Mediso’s iterative Tera-Tomo 3D reconstruction algorithm with the following settings: 4 iterations, 6 subsets, full detector model, normal regularization, spike filter on, voxel size 0.4 mm and 400‒600 keV energy window. PET data were corrected for randoms, scatter and attenuation. […] Then, PMOD’s contours interpolation tool was used to interpolate ROIs for each organ into a corresponding volume-of-interest (VOI). A static cuboidal VOI was also drawn to include the animal whole-body. Time-activity curves for each source organ, whole-body and remainder of the body were plotted. […] Residence times (τ) were determined for each radiotracer in source organs, whole-body and remaining (any activity assigned to the whole-body but not assigned to a source organ). Each preclinical source organ’s τ was determined by calculating the area under its respective time-activity curve (activity normalised to the percentage maximum injected dose as a function of time) using the trapezoid method. […] From each individual animal, eight dosimetry models were constructed from all possible combinations of image reconstruction method (FBP or iterative), τ (non-normalised or normalised to human organ masses), and sex of phantom (male or female).
# [2] = Residence times in rat source organs from whole-body PET, iterative reconstruction; settings: in vivo, iv
# Method: as §1
# [3] = Residence times normalised to human organ masses, FBP reconstruction; settings: rat, in vivo
# Method: PET studies were reconstructed using filtered-back projection (FBP) and Mediso’s iterative Tera-Tomo 3D reconstruction algorithm with the following settings: 4 iterations, 6 subsets, full detector model, normal regularization, spike filter on, voxel size 0.4 mm and 400‒600 keV energy window. PET data were corrected for randoms, scatter and attenuation. Time-activity curves for each source organ, whole-body and remainder of the body were plotted. […] Residence times (τ) were determined for each radiotracer in source organs, whole-body and remaining (any activity assigned to the whole-body but not assigned to a source organ). Each preclinical source organ’s τ was determined by calculating the area under its respective time-activity curve (activity normalised to the percentage maximum injected dose as a function of time) using the trapezoid method. […] From each individual animal, eight dosimetry models were constructed from all possible combinations of image reconstruction method (FBP or iterative), τ (non-normalised or normalised to human organ masses), and sex of phantom (male or female). Supplementary table 1. Scaling (normalisation) factors applied to residence times of PET radiotracers in male Sprague-Dawley rats to predict human adult residence times. […] Stabin et al. 2006 ^4); WB: Whole Body.
# [4] = OLINDA/EXM predicted clinical doses: adult male phantom, normalised τ, FBP; settings: rat, in vivo
# Method: (§2) PET studies were reconstructed using filtered-back projection (FBP) and Mediso’s iterative Tera-Tomo 3D reconstruction algorithm with the following settings: 4 iterations, 6 subsets, full detector model, normal regularization, spike filter on, voxel size 0.4 mm and 400‒600 keV energy window. PET data were corrected for randoms, scatter and attenuation. Time-activity curves for each source organ, whole-body and remainder of the body were plotted. […] Residence times (τ) were determined for each radiotracer in source organs, whole-body and remaining (any activity assigned to the whole-body but not assigned to a source organ). Each preclinical source organ’s τ was determined by calculating the area under its respective time-activity curve (activity normalised to the percentage maximum injected dose as a function of time) using the trapezoid method. […] From each individual animal, eight dosimetry models were constructed from all possible combinations of image reconstruction method (FBP or iterative), τ (non-normalised or normalised to human organ masses), and sex of phantom (male or female).
# [5] = OLINDA/EXM predicted clinical doses: adult female phantom, non-normalised τ, iterative; settings: rat, in vivo
# Method: as §2, with “female). Supplementary table 10. Predicted clinical absorbed organ doses and whole-body effective doses of PET radiotracers using non-normalised (preclinical) adult female source organ residence times from iterative reconstructions.” for “female).”
smiles,measurement,setting,value
"O=C[C@H]([18F])[C@@H](O)[C@H](O)[C@H](O)CO [FDG, 2-deoxy-2-[^18F]fluoro-D-glucose]","Residence Time (h), Average: Brain",[1],0.0124 h
same,"Residence Time (h), Average: Heart",[1],0.0158 h
same,"Residence Time (h), Average: Intestine",[1],0.372 h
same,"Residence Time (h), Average: Kidneys",[1],0.0215 h
same,"Residence Time (h), Average: Liver",[1],0.0249 h
same,"Residence Time (h), Average: Lungs",[1],0.0155 h
same,"Residence Time (h), Average: Remaining",[1],2.1 h
same,"Residence Time (h), Average: Urinary Bladder",[1],0.65 h
same,"Residence Time (h), Average: Brain",[2],0.0254 h
same,"Residence Time (h), Average: Heart",[2],0.0387 h
same,"Residence Time (h), Average: Intestine",[2],0.287 h
same,"Residence Time (h), Average: Kidneys",[2],0.0499 h
same,"Residence Time (h), Average: Liver",[2],0.0417 h
same,"Residence Time (h), Average: Lungs",[2],0.0166 h
same,"Residence Time (h), Average: Remaining",[2],1.35 h
same,"Residence Time (h), Average: Urinary Bladder",[2],1.15 h
same,"Normalised Residence Time (h), Average: Remaining",[3],2.12 h
same,"Effective Dose (mSv/MBq), Average ± SD",[4],2.62E-02 mSv/MBq
same,"Estimated Absorbed Dose of Organ, Average: Adrenals",[4],1.23E-02 mGy/MBq
same,"Estimated Absorbed Dose of Organ, Average: Brain",[4],8.73E-03 mGy/MBq
same,"Estimated Absorbed Dose of Organ, Average: Breasts",[4],9.14E-03 mGy/MBq
same,"Estimated Absorbed Dose of Organ, Average: Gallbladder Wall",[4],1.25E-02 mGy/MBq
same,"Estimated Absorbed Dose of Organ, Average: Heart Wall",[4],3.82E-02 mGy/MBq
same,"Estimated Absorbed Dose of Organ, Average: Kidneys",[4],1.43E-02 § mGy/MBq
same,"Estimated Absorbed Dose of Organ, Average: Liver",[4],7.98E-03 mGy/MBq
same,"Estimated Absorbed Dose of Organ, Average: Lungs",[4],1.48E-02 mGy/MBq
same,"Estimated Absorbed Dose of Organ, Average: Muscle",[4],1.13E-02 mGy/MBq
same,"Estimated Absorbed Dose of Organ, Average: Osteogenic Cells",[4],1.67E-02 mGy/MBq
same,"Estimated Absorbed Dose of Organ, Average: Pancreas",[4],1.31E-02 mGy/MBq
same,"Estimated Absorbed Dose of Organ, Average: Red Marrow",[4],1.11E-02 mGy/MBq
same,"Estimated Absorbed Dose of Organ, Average: Skin",[4],8.54E-03 mGy/MBq
same,"Estimated Absorbed Dose of Organ, Average: Small Intestine",[4],1.55E-02 mGy/MBq
same,"Estimated Absorbed Dose of Organ, Average: Spleen",[4],1.20E-02 mGy/MBq
same,"Estimated Absorbed Dose of Organ, Average: Stomach Wall",[4],1.26E-02 mGy/MBq
same,"Estimated Absorbed Dose of Organ, Average: Testes",[4],1.22E-02 mGy/MBq
same,"Estimated Absorbed Dose of Organ, Average: Thymus",[4],1.17E-02 mGy/MBq
same,"Estimated Absorbed Dose of Organ, Average: Thyroid",[4],1.09E-02 ± 1.11E-03 mGy/MBq
same,"Estimated Absorbed Dose of Organ, Average: Total Body",[4],1.17E-02 mGy/MBq
same,"Estimated Absorbed Dose of Organ, Average: ULI Wall",[4],1.39E-02 mGy/MBq
same,"Estimated Absorbed Dose of Organ, Average: Urinary Bladder Wall",[4],8.88E-02 ‡ mGy/MBq
same,Effective Dose,[5],7.95E-02 mSv/MBq
same,"Estimated Absorbed Dose of Organ, Adrenals",[5],1.20E-02 mGy/MBq
same,"Estimated Absorbed Dose of Organ, Brain",[5],6.80E-03 mGy/MBq
same,"Estimated Absorbed Dose of Organ, Breasts",[5],7.63E-03 mGy/MBq
same,"Estimated Absorbed Dose of Organ, Gallbladder Wall",[5],1.27E-02 mGy/MBq
same,"Estimated Absorbed Dose of Organ, Heart Wall",[5],3.36E-02 mGy/MBq
same,"Estimated Absorbed Dose of Organ, Kidneys",[5],3.95E-02 mGy/MBq
same,"Estimated Absorbed Dose of Organ, LLI Wall",[5],2.13E-01 ‡ mGy/MBq
same,"Estimated Absorbed Dose of Organ, Liver",[5],1.20E-02 mGy/MBq
same,"Estimated Absorbed Dose of Organ, Lungs",[5],8.85E-03 mGy/MBq
same,"Estimated Absorbed Dose of Organ, Muscle",[5],1.42E-02 mGy/MBq
same,"Estimated Absorbed Dose of Organ, Osteogenic Cells",[5],1.64E-02 mGy/MBq
same,"Estimated Absorbed Dose of Organ, Ovaries",[5],4.21E-02 mGy/MBq
same,"Estimated Absorbed Dose of Organ, Pancreas",[5],1.23E-02 mGy/MBq
same,"Estimated Absorbed Dose of Organ, Red Marrow",[5],1.35E-02 mGy/MBq
same,"Estimated Absorbed Dose of Organ, Skin",[5],8.59E-03 mGy/MBq
same,"Estimated Absorbed Dose of Organ, Small Intestine",[5],2.39E-02 mGy/MBq
same,"Estimated Absorbed Dose of Organ, Spleen",[5],1.16E-02 mGy/MBq
same,"Estimated Absorbed Dose of Organ, Stomach Wall",[5],1.21E-02 mGy/MBq
same,"Estimated Absorbed Dose of Organ, Thymus",[5],9.63E-03 mGy/MBq
same,"Estimated Absorbed Dose of Organ, Thyroid",[5],8.07E-03 mGy/MBq
same,"Estimated Absorbed Dose of Organ, ULI Wall",[5],1.93E-02 mGy/MBq
same,"Estimated Absorbed Dose of Organ, Urinary Bladder Wall",[5],7.75E-01 † mGy/MBq
same,"Estimated Absorbed Dose of Organ, Uterus",[5],5.40E-02 § mGy/MBq
same,"Estimated Absorbed Dose, Total Body",[5],1.49E-02 mGy/MBq
